Patent publication EP4737445A1, “NOVEL SATURATED HETEROCYCLE-SUBSTITUTED HETEROARYL-CARBONOHYDRAZONOYL DICYANIDE COMPOUND AND USE THEREOF” (Korea Institute of Science and Technology, priority 2023, dated 2025)
Read-outs that look alike come from different tables or passages of the source.

What was measured:
Assay type in all cases: cell-based
TDP-43 protein = molecular target: T1, TDP-43 protein (Homo sapiens, UniProt Q13148); test: TDP-43 aggregation inhibition in TDP-43-BiFC cell model (Forskolin-induced); conditions: for inhibition at 3 µM: read-out: TDP-43 protein aggregation inhibitory effect: Aggregation inhibitory effect (%) (@3 uM)
T1 construct: BiFC fluorescent-protein fragments (two complementary halves); expressed in transfected cells
T1 sequence (Q13148 whole entry, the tested form may be a part): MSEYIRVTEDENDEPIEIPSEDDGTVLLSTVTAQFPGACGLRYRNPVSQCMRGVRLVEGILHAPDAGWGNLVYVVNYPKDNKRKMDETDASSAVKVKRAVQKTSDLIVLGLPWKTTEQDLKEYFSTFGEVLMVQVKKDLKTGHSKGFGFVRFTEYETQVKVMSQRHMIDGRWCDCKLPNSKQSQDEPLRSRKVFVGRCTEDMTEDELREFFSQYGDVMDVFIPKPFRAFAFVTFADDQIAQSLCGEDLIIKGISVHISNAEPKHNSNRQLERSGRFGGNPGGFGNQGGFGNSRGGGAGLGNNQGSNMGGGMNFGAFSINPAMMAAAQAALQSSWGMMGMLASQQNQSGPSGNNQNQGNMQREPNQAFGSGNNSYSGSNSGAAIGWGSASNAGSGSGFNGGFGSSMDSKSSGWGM
Method in brief: (§1)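 Forskolin (30 µM) co-treated with compound (screen 3 and 10 µM; dose-response 0.003–10 µM) for 48 h. BiFC fluorescence normalised to Forskolin-only (100% aggregation) minus untreated; viability from Hoechst-stained nuclei count vs Forskolin-only. IC50 by nonlinear regression.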

TDP-43 BiFC cells = test: Cell viability (stained nuclei count) in TDP-43-BiFC cells; conditions: Forskolin-only group = 100%
Method in brief: as §1

Tau = molecular target: T2, Tau (Homo sapiens, UniProt P10636); test: Tau aggregation inhibition in Tau-BiFC cell model (Forskolin-induced)
T2 construct: BiFC fluorescent-protein fragments (two complementary halves on two tau copies); expressed in transfected cells
T2 sequence (P10636 1-441 isoform P10636-8): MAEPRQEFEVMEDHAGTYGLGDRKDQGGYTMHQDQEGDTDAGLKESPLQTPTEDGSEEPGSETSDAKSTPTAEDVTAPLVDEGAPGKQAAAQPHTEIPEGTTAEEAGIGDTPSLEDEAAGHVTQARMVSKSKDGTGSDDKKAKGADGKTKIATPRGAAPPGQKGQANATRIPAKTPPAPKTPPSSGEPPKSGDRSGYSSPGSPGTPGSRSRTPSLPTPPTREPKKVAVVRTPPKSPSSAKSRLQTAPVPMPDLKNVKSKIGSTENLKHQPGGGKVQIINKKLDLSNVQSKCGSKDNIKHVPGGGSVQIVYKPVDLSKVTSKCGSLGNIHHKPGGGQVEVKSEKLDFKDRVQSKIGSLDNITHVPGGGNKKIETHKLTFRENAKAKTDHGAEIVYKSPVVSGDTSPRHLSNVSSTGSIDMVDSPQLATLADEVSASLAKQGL
Method in brief: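 Tau-BiFC cells were co-treated with compound (1, 3, 10 µM for screening; 0.03–30 µM for IC50) and 30 µM Forskolin for 48 h. BiFC fluorescence was normalised to the Forskolin-only window for aggregation; viability came from Hoechst-stained nuclei counts relative to Forskolin-only (100%). IC50 was derived by nonlinear regression.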

Row | SMILES | inhibition at 3 µM (TDP-43 protein) | Cell viability (%) (@ 3 uM) (TDP-43 BiFC cells) | IC50 (Tau; read-out: Tau aggregation inhibitory effect IC50, Tau-BiFC cell line, Forskolin 30 µM, 48 hours, 0.03-30 µM) | IC50 (TDP-43 protein) | IC50 (Tau)
1 | N#CC(C#N)=NNc1ccc2nc(NC(=O)N3CCOCC3)sc2c1 [Compound 38, (2-(morpholine-4-carboxamido)benzo[d]thiazol-6-yl)carbonohydrazonoyl dicyanide] | 49.6% | 111.9% | 68 nM |  | 
2 | N#CC(C#N)=NNc1ccc2nc(N3CCNCC3)oc2c1 [Compound 25, (2-(piperazin-1-yl)benzo[d]oxazol-6-yl)carbonohydrazonoyl dicyanide] | 98.2% | 76.7% |  | 53 nM | 36 nM
3 | CC(=O)N1CCN(c2nc3ccc(NN=C(C#N)C#N)cc3o2)CC1 [Compound 31, (2-(4-acetylpiperazin-1-yl)benzo[d]oxazol-6-yl)carbonohydrazonoyl dicyanide] | 41.4% | 82.7% |  |  | 88 nM
4 | Cn1c(N2C3CCC2COC3)nc2cc(NN=C(C#N)C#N)ccc21 [Compound 35, (2-(3-oxa-8-azabicyclo[3.2.1]octan-8-yl)-1-methyl-1H-benzo[d]imidazol-5-yl)carbonohydrazonoyl dicyanide] | 62.9% | 67.4% |  | 192 nM | 12 nM
5 | COC1CCN(c2nc3ccc(NN=C(C#N)C#N)cc3o2)CC1 [Compound 17, (2-(4-methoxypiperidin-1-yl)benzo[d]oxazol-6-yl)carbonohydrazonoyl dicyanide] | 100% | 96.9% |  |  | 88 nM
6 | N#CC(C#N)=NNc1ccc2nc(N3C4CCC3COC4)sc2c1 [Compound 11, (2-(3-oxa-8-azabicyclo[3.2.1]octan-8-yl)benzo[d]thiazol-6-yl)carbonohydrazonoyl dicyanide] | 100% | 80.9% |  |  | 32 nM
7 | CC1CN(c2nc3ccc(NN=C(C#N)C#N)cc3o2)CC(C)O1 (stereo not drawn) [Compound 18, (2-(2,6-dimethylmorpholino)benzo[d]oxazol-6-yl)carbonohydrazonoyl dicyanide] | 98.6% | 102.1% |  |  | 128 nM
8 | N#CC(C#N)=NNc1ccc2nc(N3CCOCC3)oc2c1 [Compound 4, (2-morpholinobenzo[d]oxazol-6-yl)carbonohydrazonoyl dicyanide] | 100% | 104.2% |  |  | 56 nM
9 | CC1CN(C(=O)Nc2nc3ccc(NN=C(C#N)C#N)cc3s2)CC(C)O1 (stereo not drawn) [Compound 39, (2-(2,6-dimethylmorpholine-4-carboxamido)benzo[d]thiazol-6-yl)carbonohydrazonoyl dicyanide] | 58.7% | 117.7% |  |  | 44 nM
10 | N#CC(C#N)=NNc1ccc2nc(N3CCOCC3)sc2c1 [Compound 2, (2-morpholinobenzo[d]thiazol-6-yl)carbonohydrazonoyl dicyanide] | 100% | 87.5% |  |  | 4 nM
11 | COC1CCN(c2nc3ccc(NN=C(C#N)C#N)cc3s2)CC1 [Compound 9, (2-(4-methoxypiperidin-1-yl)benzo[d]thiazol-6-yl)carbonohydrazonoyl dicyanide] | 100% | 76.2% |  |  | 36 nM
12 | Cn1c(N2CCOCC2)nc2cc(NN=C(C#N)C#N)ccc21 [Compound 6, (1-methyl-2-morpholino-1H-benzo[d]imidazol-5-yl)carbonohydrazonoyl dicyanide] | 97.4% | 98.1% |  |  | 24 nM
13 | Cn1c(N2CCOCC2)nc2ccc(NN=C(C#N)C#N)cc21 [Compound 5, (1-methyl-2-morpholino-1H-benzo[d]imidazol-6-yl)carbonohydrazonoyl dicyanide] | 94.7% | 109.2% |  |  | 32 nM
14 | CC(=O)N1CCN(c2nc3ccc(NN=C(C#N)C#N)cc3s2)CC1 [Compound 30, (2-(4-acetylpiperazin-1-yl)benzo[d]thiazol-6-yl)carbonohydrazonoyl dicyanide] | 88% | 83.1% |  | 146 nM | 60 nM
15 | CC1COCCN1c1nc2ccc(NN=C(C#N)C#N)cc2o1 (stereo not drawn) [Compound 16, (2-(3-methylmorpholino)benzo[d]oxazol-6-yl)carbonohydrazonoyl dicyanide] | 100% | 97.8% |  |  | 49 nM
16 | N#CC(C#N)=NNc1ccc2nc(N3CC4CCC(C3)O4)sc2c1 [Compound 23, (2-(8-oxa-3-azabicyclo[3.2.1]octan-3-yl)benzo[d]thiazol-6-yl)carbonohydrazonoyl dicyanide] | 99.2% | 81.1% |  | 107 nM | 48 nM
17 | N#CC(C#N)=NNc1ccc2nc(N3CCNCC3)sc2c1 [Compound 24, (2-(piperazin-1-yl)benzo[d]thiazol-6-yl)carbonohydrazonoyl dicyanide] | 97.9% | 83.1% |  | 53 nM | 168 nM
18 | CC1CN(c2nc3ccc(NN=C(C#N)C#N)cc3o2)CCO1 (stereo not drawn) [Compound 15, (2-(2-methylmorpholino)benzo[d]oxazol-6-yl)carbonohydrazonoyl dicyanide] | 97.5% | 105.2% |  |  | 48 nM
19 | CCn1c(N2CCOCC2)nc2ccc(NN=C(C#N)C#N)cc21 [Compound 32, (1-ethyl-2-morpholino-1H-benzo[d]imidazol-6-yl)carbonohydrazonoyl dicyanide] | 95.4% | 59.7% |  | 99 nM | 12 nM
20 | CN1CCN(c2nc3ccc(NN=C(C#N)C#N)cc3s2)CC1 [Compound 8, (2-(4-methylpiperazin-1-yl)benzo[d]thiazol-6-yl)carbonohydrazonoyl dicyanide] | 100% | 83.0% |  |  | 32 nM
21 | N#CC(C#N)=NNc1ccc2sc(N3CCOCC3)nc2c1 [Compound 1, (2-morpholinobenzo[d]thiazol-5-yl)carbonohydrazonoyl dicyanide] | 78.1% | 87.5% |  |  | 12 nM
